Assay results published in ChEMBL document CHEMBL1275577, “Study of the in vitro activities of rifaximin and comparator agents against 536 anaerobic intestinal bacteria from the perspective of potential utility in pathology involving bowel flora” (Antimicrob Agents Chemother, 2009).
In brackets after ≈: the same amount, converted by molar mass.

What was measured:
Format in all cases: functional
[1] = system: Parabacteroides distasonis; assay: Antimicrobial activity against Parabacteroides distasonis by Wadsworth agar dilution method
Bacteroides ovatus = assay: Antimicrobial activity against Bacteroides ovatus by Wadsworth agar dilution method
[2] = system: Bacteroides thetaiotaomicron; assay: Antimicrobial activity against Bacteroides thetaiotaomicron by Wadsworth agar dilution method
Bacteroides nordii = assay: Antimicrobial activity against Bacteroides nordii by Wadsworth agar dilution method
Bacteroides stercoris = assay: Antimicrobial activity against Bacteroides stercoris by Wadsworth agar dilution method
Bacteroides uniformis = assay: Antimicrobial activity against Bacteroides uniformis by Wadsworth agar dilution method
Bilophila wadsworthia = assay: Antimicrobial activity against Bilophila wadsworthia by Wadsworth agar dilution method in presence of 1% pyruvic acid
[3] = system: Desulfovibrio desulfuricans; assay: Antimicrobial activity against Desulfovibrio desulfuricans by Wadsworth agar dilution method
Desulfovibrio piger = assay: Antimicrobial activity against Desulfovibrio piger by Wadsworth agar dilution method
Desulfovibrio vulgaris = assay: Antimicrobial activity against Desulfovibrio vulgaris by Wadsworth agar dilution method; details: Nitratidesulfovibrio vulgaris
Fusobacterium nucleatum = assay: Antimicrobial activity against Fusobacterium nucleatum by Wadsworth agar dilution method
Fusobacterium varium = assay: Antimicrobial activity against Fusobacterium varium by Wadsworth agar dilution method
Fusobacterium sp. = assay: Antimicrobial activity against Fusobacterium sp. by Wadsworth agar dilution method
Porphyromonas = assay: Antimicrobial activity against Porphyromonas sp. by Wadsworth agar dilution method
Porphyromonas uenonis = assay: Antimicrobial activity against Porphyromonas uenonis by Wadsworth agar dilution method
Prevotella corporis = assay: Antimicrobial activity against Prevotella corporis by Wadsworth agar dilution method
[4] = system: Enterocloster clostridioformis; assay: Antimicrobial activity against Clostridium clostridioforme by Wadsworth agar dilution method
[5] = system: Clostridium acetobutylicum; assay: Antimicrobial activity against Clostridium acetobutylicum by Wadsworth agar dilution method
Clostridium beijerinckii = assay: Antimicrobial activity against Clostridium beijerinckii by Wadsworth agar dilution method
Clostridium butyricum = assay: Antimicrobial activity against Clostridium butyricum by Wadsworth agar dilution method
Clostridium cadaveris = assay: Antimicrobial activity against Clostridium cadaveris by Wadsworth agar dilution method
Clostridium disporicum = assay: Antimicrobial activity against Clostridium disporicum by Wadsworth agar dilution method
Clostridium fallax = assay: Antimicrobial activity against Clostridium fallax by Wadsworth agar dilution method
Tissierella praeacuta = assay: Antimicrobial activity against Clostridium hastiforme by Wadsworth agar dilution method
[6] = system: Clostridium lactatifermentans; assay: Antimicrobial activity against Clostridium lactatifermentans by Wadsworth agar dilution method; details: Anaerotignum lactatifermentans
Clostridium scindens = assay: Antimicrobial activity against Clostridium scindens by Wadsworth agar dilution method
Clostridium sp. = assay: Antimicrobial activity against Clostridium sp. by Wadsworth agar dilution method
Clostridium spiroforme = assay: Antimicrobial activity against Clostridium spiroforme by Wadsworth agar dilution method; details: Thomasclavelia spiroformis
Clostridium sporogenes = assay: Antimicrobial activity against Clostridium sporogenes by Wadsworth agar dilution method
Clostridium subterminale = assay: Antimicrobial activity against Clostridium subterminale by Wadsworth agar dilution method
Clostridium symbiosum = assay: Antimicrobial activity against Clostridium symbiosum by Wadsworth agar dilution method
Clostridium tertium = assay: Antimicrobial activity against Clostridium tertium by Wadsworth agar dilution method
Schaalia meyeri = assay: Antimicrobial activity against Actinomyces meyeri by Wadsworth agar dilution method
Actinomyces viscosus = assay: Antimicrobial activity against Actinomyces viscosus by Wadsworth agar dilution method
Bifidobacterium breve = assay: Antimicrobial activity against Bifidobacterium breve by Wadsworth agar dilution method
Bifidobacterium dentium = assay: Antimicrobial activity against Bifidobacterium dentium by Wadsworth agar dilution method
[7] = system: Catenibacterium mitsuokai; assay: Antimicrobial activity against Catenibacterium mitsuokai by Wadsworth agar dilution method
[8] = system: Coprobacillus cateniformis; assay: Antimicrobial activity against Coprobacillus cateniformis by Wadsworth agar dilution method
Eggerthella lenta = assay: Antimicrobial activity against Eggerthella lenta by Wadsworth agar dilution method
Eubacterium callanderi = assay: Antimicrobial activity against Eubacterium callanderi by Wadsworth agar dilution method
Eubacterium limosum = assay: Antimicrobial activity against Eubacterium limosum by Wadsworth agar dilution method
Eubacterium saburreum = assay: Antimicrobial activity against Eubacterium saburreum by Wadsworth agar dilution method; details: Lachnoanaerobaculum saburreum
[9] = system: Lactobacillus acidophilus; assay: Antimicrobial activity against Lactobacillus acidophilus by Wadsworth agar dilution method
[10] = system: Lactobacillus catenaformis; assay: Antimicrobial activity against Lactobacillus catenaformis by Wadsworth agar dilution method; details: Eggerthia catenaformis
[11] = system: Peptoniphilus asaccharolyticus; assay: Antimicrobial activity against Peptoniphilus asaccharolyticus by Wadsworth agar dilution method
Ruminococcus gnavus = assay: Antimicrobial activity against Ruminococcus gnavus by Wadsworth agar dilution method; details: Mediterraneibacter gnavus
Ruminococcus lactaris = assay: Antimicrobial activity against Ruminococcus lactaris by Wadsworth agar dilution method

In the case of `CO[C@H]1/C=C/O[C@@]2(C)Oc3c(C)c(O)c4c(O)c(c5c(nc6cc(C)ccn65)c4c3C2=O)NC(=O)/C(C)=C\C=C\[C@H](C)[C@H](O)[C@@H](C)[C@@H](O)[C@@H](C)[C@H](OC(C)=O)[C@@H]1C` [RIFAXIMIN], the MIC [1] is reported as 0.25 µg/mL (≈ 0.318 µM), the MIC50 [1] is reported as 0.25 µg/mL (≈ 0.318 µM) and the MIC90 [1] is reported as 1 µg/mL (≈ 1.27 µM). For the same molecule, the MIC50 (Bacteroides ovatus) was 1 µg/mL (≈ 1.27 µM), the MIC90 (Bacteroides ovatus) was 1 µg/mL (≈ 1.27 µM) and the MIC50 [2] was 1 µg/mL (≈ 1.27 µM). For the same molecule, the MIC90 [2] was greater than 1020 µg/mL, the MIC (Bacteroides nordii) was 0.25 µg/mL (≈ 0.318 µM) and the MIC50 (Bacteroides nordii) was 0.25 µg/mL (≈ 0.318 µM). It also gave an MIC90 (Bacteroides nordii) of 0.5 µg/mL (≈ 0.636 µM), an MIC (Bacteroides stercoris) of 0.25 µg/mL (≈ 0.318 µM) and an MIC50 (Bacteroides stercoris) of 0.25 µg/mL (≈ 0.318 µM). For the same molecule, the MIC90 (Bacteroides stercoris) was 0.5 µg/mL (≈ 0.636 µM), the MIC (Bacteroides uniformis) was 0.25 µg/mL (≈ 0.318 µM) and the MIC50 (Bacteroides uniformis) was 0.25 µg/mL (≈ 0.318 µM). The MIC90 (Bacteroides uniformis) was 0.5 µg/mL (≈ 0.636 µM), the MIC (Bilophila wadsworthia) was 0.25 µg/mL and the MIC50 (Bilophila wadsworthia) was 0.25 µg/mL. The MIC90 (Bilophila wadsworthia) was 0.5 µg/mL, the MIC [3] was 32 µg/mL (≈ 40.7 µM) and the MIC50 [3] was 32 µg/mL (≈ 40.7 µM). It also gave an MIC90 [3] of 64 µg/mL (≈ 81.4 µM), an MIC50 (Desulfovibrio piger) of 16 µg/mL (≈ 20.4 µM) and an MIC90 (Desulfovibrio piger) of 332 µg/mL (≈ 422 µM). For the same molecule, the MIC50 (Desulfovibrio vulgaris) was 16 µg/mL (≈ 20.4 µM), the MIC90 (Desulfovibrio vulgaris) was 332 µg/mL (≈ 422 µM) and the MIC50 (Fusobacterium nucleatum) was 2 µg/mL (≈ 2.54 µM). It also gave an MIC90 (Fusobacterium nucleatum) of 8 µg/mL (≈ 10.2 µM), an MIC50 (Fusobacterium varium) of 16 µg/mL (≈ 20.4 µM) and an MIC90 (Fusobacterium varium) greater than 1020 µg/mL. It also gave an MIC50 (Fusobacterium sp.) of 16 µg/mL (≈ 20.4 µM), an MIC90 (Fusobacterium sp.) greater than 1020 µg/mL and an MIC (Porphyromonas) of 0.25 µg/mL (≈ 0.318 µM). For the same molecule, the MIC50 (Porphyromonas) was 0.25 µg/mL (≈ 0.318 µM), the MIC90 (Porphyromonas) was 0.5 µg/mL (≈ 0.636 µM) and the MIC (Porphyromonas uenonis) was 0.25 µg/mL (≈ 0.318 µM). It also gave an MIC50 (Porphyromonas uenonis) of 0.25 µg/mL (≈ 0.318 µM), an MIC90 (Porphyromonas uenonis) of 0.5 µg/mL (≈ 0.636 µM) and an MIC (Prevotella corporis) of 0.25 µg/mL (≈ 0.318 µM). The MIC50 (Prevotella corporis) was 0.25 µg/mL (≈ 0.318 µM), the MIC90 (Prevotella corporis) was 0.5 µg/mL (≈ 0.636 µM) and the MIC50 [4] was 0.25 µg/mL (≈ 0.318 µM). The MIC90 [4] was 0.25 µg/mL (≈ 0.318 µM), the MIC [5] was 0.25 µg/mL (≈ 0.318 µM) and the MIC50 [5] was 0.25 µg/mL (≈ 0.318 µM). The MIC90 [5] was greater than 1020 µg/mL, the MIC (Clostridium beijerinckii) was 0.25 µg/mL (≈ 0.318 µM) and the MIC50 (Clostridium beijerinckii) was 0.25 µg/mL (≈ 0.318 µM). The MIC90 (Clostridium beijerinckii) was greater than 1020 µg/mL, the MIC (Clostridium butyricum) was 0.25 µg/mL (≈ 0.318 µM) and the MIC50 (Clostridium butyricum) was 0.25 µg/mL (≈ 0.318 µM). It also gave an MIC90 (Clostridium butyricum) greater than 1020 µg/mL, an MIC (Clostridium cadaveris) of 0.25 µg/mL (≈ 0.318 µM) and an MIC50 (Clostridium cadaveris) of 0.25 µg/mL (≈ 0.318 µM). It also gave an MIC90 (Clostridium cadaveris) greater than 1020 µg/mL, an MIC (Clostridium disporicum) of 0.25 µg/mL (≈ 0.318 µM) and an MIC50 (Clostridium disporicum) of 0.25 µg/mL (≈ 0.318 µM). For the same molecule, the MIC90 (Clostridium disporicum) was greater than 1020 µg/mL, the MIC (Clostridium fallax) was 0.25 µg/mL (≈ 0.318 µM) and the MIC50 (Clostridium fallax) was 0.25 µg/mL (≈ 0.318 µM). For the same molecule, the MIC90 (Clostridium fallax) was greater than 1020 µg/mL, the MIC (Tissierella praeacuta) was 0.25 µg/mL (≈ 0.318 µM) and the MIC50 (Tissierella praeacuta) was 0.25 µg/mL (≈ 0.318 µM). It also gave an MIC90 (Tissierella praeacuta) greater than 1020 µg/mL, an MIC [6] of 0.25 µg/mL (≈ 0.318 µM) and an MIC50 [6] of 0.25 µg/mL (≈ 0.318 µM). It also gave an MIC90 [6] greater than 1020 µg/mL, an MIC (Clostridium scindens) of 0.25 µg/mL (≈ 0.318 µM) and an MIC50 (Clostridium scindens) of 0.25 µg/mL (≈ 0.318 µM). It also gave an MIC90 (Clostridium scindens) greater than 1020 µg/mL, an MIC (Clostridium sp.) of 0.25 µg/mL (≈ 0.318 µM) and an MIC50 (Clostridium sp.) of 0.25 µg/mL (≈ 0.318 µM). For the same molecule, the MIC90 (Clostridium sp.) was greater than 1020 µg/mL, the MIC (Clostridium spiroforme) was 0.25 µg/mL (≈ 0.318 µM) and the MIC50 (Clostridium spiroforme) was 0.25 µg/mL (≈ 0.318 µM). The MIC90 (Clostridium spiroforme) was greater than 1020 µg/mL, the MIC (Clostridium sporogenes) was 0.25 µg/mL (≈ 0.318 µM) and the MIC50 (Clostridium sporogenes) was 0.25 µg/mL (≈ 0.318 µM). The MIC90 (Clostridium sporogenes) was greater than 1020 µg/mL, the MIC (Clostridium subterminale) was 0.25 µg/mL (≈ 0.318 µM) and the MIC50 (Clostridium subterminale) was 0.25 µg/mL (≈ 0.318 µM). For the same molecule, the MIC90 (Clostridium subterminale) was greater than 1020 µg/mL, the MIC (Clostridium symbiosum) was 0.25 µg/mL (≈ 0.318 µM) and the MIC50 (Clostridium symbiosum) was 0.25 µg/mL (≈ 0.318 µM). It also gave an MIC90 (Clostridium symbiosum) greater than 1020 µg/mL, an MIC (Clostridium tertium) of 0.25 µg/mL (≈ 0.318 µM) and an MIC50 (Clostridium tertium) of 0.25 µg/mL (≈ 0.318 µM). For the same molecule, the MIC90 (Clostridium tertium) was greater than 1020 µg/mL, the MIC50 (Schaalia meyeri) was 0.5 µg/mL (≈ 0.636 µM) and the MIC90 (Schaalia meyeri) was greater than 1020 µg/mL. The MIC50 (Actinomyces viscosus) was 0.5 µg/mL (≈ 0.636 µM), the MIC90 (Actinomyces viscosus) was greater than 1020 µg/mL and the MIC50 (Bifidobacterium breve) was 0.5 µg/mL (≈ 0.636 µM). For the same molecule, the MIC90 (Bifidobacterium breve) was greater than 1020 µg/mL, the MIC50 (Bifidobacterium dentium) was 0.5 µg/mL (≈ 0.636 µM) and the MIC90 (Bifidobacterium dentium) was greater than 1020 µg/mL. The MIC50 [7] was 0.5 µg/mL (≈ 0.636 µM), the MIC90 [7] was greater than 1020 µg/mL and the MIC50 [8] was 0.5 µg/mL (≈ 0.636 µM). The MIC90 [8] was greater than 1020 µg/mL, the MIC50 (Eggerthella lenta) was 0.5 µg/mL (≈ 0.636 µM) and the MIC90 (Eggerthella lenta) was greater than 1020 µg/mL. It also gave an MIC50 (Eubacterium callanderi) of 0.5 µg/mL (≈ 0.636 µM), an MIC90 (Eubacterium callanderi) greater than 1020 µg/mL and an MIC50 (Eubacterium limosum) of 0.5 µg/mL (≈ 0.636 µM). For the same molecule, the MIC90 (Eubacterium limosum) was greater than 1020 µg/mL, the MIC50 (Eubacterium saburreum) was 0.5 µg/mL (≈ 0.636 µM) and the MIC90 (Eubacterium saburreum) was greater than 1020 µg/mL. It also gave an MIC50 [9] of 0.5 µg/mL (≈ 0.636 µM), an MIC90 [9] greater than 1020 µg/mL and an MIC50 [10] of 0.5 µg/mL (≈ 0.636 µM). The MIC90 [10] was greater than 1020 µg/mL, the MIC [11] was 0.25 µg/mL (≈ 0.318 µM) and the MIC50 [11] was 0.25 µg/mL (≈ 0.318 µM). The MIC90 [11] was 4 µg/mL (≈ 5.09 µM), the MIC (Ruminococcus gnavus) was 0.25 µg/mL (≈ 0.318 µM) and the MIC50 (Ruminococcus gnavus) was 0.25 µg/mL (≈ 0.318 µM). For the same molecule, the MIC90 (Ruminococcus gnavus) was 4 µg/mL (≈ 5.09 µM), the MIC (Ruminococcus lactaris) was 0.25 µg/mL (≈ 0.318 µM) and the MIC50 (Ruminococcus lactaris) was 0.25 µg/mL (≈ 0.318 µM). The MIC90 (Ruminococcus lactaris) was 4 µg/mL (≈ 5.09 µM).
